# Assay results reported in patent US20090054453A1, “Novel Tetralins as 5-HT6 Modulators” (priority 2006, published 2009).
# Target: T1, rat striatal 5-HT6 receptors (Rattus norvegicus, UniProt P31388)
# T1 construct: Striatal tissue from adult rats (Sprague-Dawley, 320-370 g, B & K Sweden) were dissected out, weighed and homogenized; from tissue; host or cells: rat striatum (Sprague-Dawley) membranes
# Assay: [125I]SB258585 binding to rat striatal 5-HT6 receptors
# Conditions: competition with [125I]SB258585, rat striatal membranes
# Method: Method for [125I]SB258585 binding to rat striatal 5-HT6 receptors
# [^125I]SB258585 (1) with specific radioactivity 2000 Ci/mmol was purchased from Amersham Biosciences Europe GmbH, Freiburg, Germany. Other chemicals were purchased from commercial sources and were of analytical grade.
# Striatal tissue from adult rats (Sprague-Dawley, 320-370 g, B & K Sweden) were dissected out, weighed and homogenized in buffer containing 50 mM Tris-HCl, 4 mM MgCl2, 1 mM EDTA, 10 μM pargyline and protease inhibitor (Complete, Roche Diagnostics) pH 7.4 using an Ultra-Turrax T8 (IKA Labortechnik, Germany). The tissue homogenate was centrifuged at 48 000×g for 10 min and the pellet was resuspended and recentrifuged as above. […]
# Saturation binding studies were carried out in duplicate with 1-3 mg w.w. per tube in 0.5 ml buffer (50 mM Tris, 4 mM MgCl2, 100 mM NaCl, 1 mM EDTA, 5 mM ascorbate and 10 μM pargyline at pH 7.4), 0.2 nM [^125I]SB258585 and unlabelled SB258585 to give a final concentration range of 0.23-20 nM (12 conc.). Non-specific binding was determined in the presence of 10 μM methiothepin. […] The radioactivity was determined in a Packard Tri-Carb 2900TR liquid scintillation counter. Data were analyzed by non-linear regression analyses using PRISM 4.00 (GraphPad Software Inc., San Diego, Calif.). […]
# T1 sequence (P31388 whole entry): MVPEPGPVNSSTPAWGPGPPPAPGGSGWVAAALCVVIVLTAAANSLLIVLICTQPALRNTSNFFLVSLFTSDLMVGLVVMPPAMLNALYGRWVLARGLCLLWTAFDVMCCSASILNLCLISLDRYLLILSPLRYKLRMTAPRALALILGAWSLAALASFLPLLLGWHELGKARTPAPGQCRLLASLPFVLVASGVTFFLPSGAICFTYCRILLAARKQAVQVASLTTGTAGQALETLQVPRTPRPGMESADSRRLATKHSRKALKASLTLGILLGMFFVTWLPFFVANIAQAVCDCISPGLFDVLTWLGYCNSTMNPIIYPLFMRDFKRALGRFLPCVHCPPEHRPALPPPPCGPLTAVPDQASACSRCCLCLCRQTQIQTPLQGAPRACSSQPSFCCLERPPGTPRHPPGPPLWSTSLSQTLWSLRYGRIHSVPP
structure (smiles),measurement,value
"CN1CCN(c2cccc3c2C[C@H](NS(=O)(=O)c2ccc4ccccc4c2)CC3)CC1 [Example 12, N-[(2R)-8-(4-Methylpiperazin-1-yl)-1,2,3,4-tetrahydronaphthalen-2-yl]naphthalene-2-sulfonamide]",Ki,0.8 nM
